Patent EP0530016B1, “Piperidine derivative and pharmaceutical composition containing it” (Ajinomoto Co., Inc., priority 1991, dated 1993)

Assays:
[1] = system: spontaneously hypertensive rats; experiment: Antihypertensive effect after intravenous bolus injection, tail-cuff systolic blood pressure; format: in vivo; settings: dose 10 mg/kg, reduction in systolic blood pressure from basal values, male spontaneously hypertensive rats
Experimental: Two male spontaneously hypertensive rats (body weight 400-440g) and in which hypertension was confirmed were used as test animals. These were obtained from Charles River Japan (Kanagawa, Japan) and were maintained in a pathogen free state until used.
An aqueous solution of the derivative prepared in Example 1 above in physiological saline containing 2.5% Nicolle TM and 2.5% ethanol was intravenously administered by bolus injection in a does of 1ml per 1 kg body weight. Systolic blood pressure (SBP) after administration was measured by an indirect (tail-cuff) method. The antihypertensive effect was shown as a reduction in blood pressure (mmHg) from the basal values.

[2] = system: spontaneously hypertensive rats; experiment: Antihypertensive effect after oral administration, tail-cuff systolic blood pressure; format: in vivo; settings: dose 6 mg/kg, reduction in systolic blood pressure from basal values, male spontaneously hypertensive rats; for dSBP (mmHg) 2hr: 2hr after administration; for dSBP (mmHg) 6hr: 6hr after administration
Experimental: Four male spontaneously hypertensive rats (body weight 400-440g) and in which hypertension was confirmed were used. These were obtained from Charles River Japan (Kanagawa, Japan and were maintained in a pathogen free state until used.
A 5% arabic gum aqueous suspension of each sample was administered orally in a dose of 1ml per kg body weight. Systolic blood pressure after administration was measured by an indirect (tail-cuff) method. Antihypertensive effect was shown as a reduction in blood pressure (mmHg) from the basal values.

[3] = system: platelet aggregation induced by a combination of ADP and serotonin; experiment: Inhibition of the increased platelet aggregation caused by serotonin in platelet rich plasma; format: cell-based; settings: Oryctolagus cuniculus; rabbit platelet rich plasma; ADP (1.5»M) and serotonin (5»M); 50% inhibition of the increased platelet aggregation caused by serotonin
Experimental: Blood was obtained from rabbit and was treated with 3.8% sodium citrate. Platelet rich plasma (PRP) was prepared by centrifugation at 1200 rpm for 10 min at room temperature. The platelet aggregation induced by adenosine diphosphate (ADP) (1.5»M) and by a combination of ADP (1.5»M) and serotonin (5»M) was measured. Then the concentration of piperidine derivative required to produce 50% inhibition of the increased platelet aggregation caused by serotonin compared with the control was calculated as IC50.

Row | IC50 [3] | SMILES | dSBP (mmHg) 0.5hr ([1]; 0.5hr after administration) | dSBP (mmHg) 4hr ([1]; 4hr after administration) | dSBP (mmHg) 2hr [2] | dSBP (mmHg) 6hr [2]
1 | 200 nM | NS(=O)(=O)c1ccc(C=CCN2CCC(=C3c4ccccc4C=Cc4ccccc43)CC2)cc1 [Example 1, 1-(4-Aminosulfonylcinnamyl)-4-(5H-dibenzo[a,d]cyclohepten-5-ylidene)piperidine] | -83 mmHg | -95 mmHg | -37 mmHg | -48 mmHg
2 | 251 nM | NS(=O)(=O)c1ccc(C=CCN2CCC(=C3c4ccccc4CSc4ccccc43)CC2)cc1 [Example 2, 11-[1-(4-Aminosulfonylcinnamyl)-4-piperidinylidene]-6,11-dihydrodibenzo[b,e]thiepin] |  |  | -31 mmHg | -43 mmHg
